Experimental data taken from article PMC8942502 (Journal of Enzyme Inhibition and Medicinal Chemistry, 2022).
Where two headings read alike, the source gives them in different places.

What was measured:
[1] = target: T1, LSD1-CoREST complex (Homo sapiens, UniProt O60341); assay: LSD1-CoREST inhibition assay (Amplex UltraRed/HRP, H3K4 peptide); type: biochemical; conditions: for IC50: mean ± SD from two experiments in duplicate, 10 min preincubation; for fold drop of anti-LSD1 potency compared with phenyl analogue: para compounds vs 1a, meta compound vs 1b
T1 construct: made in house; host or cells: Escherichia coli

[2] = test system: LNCaP cells; assay: MTT cell viability assay; type: cell-based; conditions: Homo sapiens
Description: (§1) The tested compounds have been dissolved in DMSO at […] as stock concentration. All compounds have been tested at 10 μM and 50 μM as final concentrations for WB analysis. All compounds have been used at 0.1 μM, 5 μM, 10 μM, 25 μM, 50 μM as final concentration for proliferation assays. ORY-1001 (Selleck Catalog No. S7795) was used as reference compound at the concentration of 25 μM.
(§2) Cell culture LNCaP and U937 were purchased from ATCC (Milan, Italy). LNCaP were grown in Roswell Park Memorial Institute culture medium (RPMI; EuroClone, Milan, Italy), supplemented with 10% heat-inactivated foetal bovine serum (FBS; Sigma-Aldrich, Schnellendorf, Germany), antimicrobials (100 U/mL penicillin, 100 µg/mL streptomycin, 250 ng/mL amphotericin-B), 2 mM L-glutamine (EuroClone, Milan, Italy), and 1% essential amino acids solution (MEM; EuroClone, Milan, Italy). U937 were cultured in Dulbecco’s Modified Eagle Medium (DMEM; EuroClone, Milan, Italy), supplemented with 10% heat-inactivated foetal bovine serum (FBS; Sigma-Aldrich, Schnellendorf, Germany), antimicrobials (100 U/mL penicillin, 100 µg/mL streptomycin, 250 ng/mL amphotericin-B), 2 mM L-glutamine (EuroClone). Cells have grown in standard incubator conditions at 37 °C and 5% CO2.
(§3) Cell viability was determined on LNCaP and U937 cell lines using Thiazolyl Blue Tetrazolium Bromide [3-(4,5-dimethylthiazol-2-yl)-2,5-diphenyltetrazolium bromide] (MTT; Sigma-Aldrich, Schnellendorf, Germany) assay, following manufacturer’s instructions. A total of 5 × 10^3 cells/well were plated in a 96-well plate and treated, in duplicates, and repeated for three times, with the tested compounds at different concentrations 0.1 μM, 5 μM, 10 μM, 25 μM, 50 μM as final concentrations for 48 h, and 72 h. […] Absorbance was read at a wavelength of 570 nm with a TECAN M − 200 reader (Tecan, Männedorf, Switzerland).

[3] = test system: U937 cells; assay: MTT cell viability assay; type: cell-based; conditions: 0.1-50 μM, 48 and 72 h
Description: as §1, §2, §3

[4] = test system: LSD1; conditions: Figure 1; cited from earlier work
[5] = test system: MAO-A; conditions: Figure 1, cited from earlier work
[6] = test system: MAO-B; conditions: Figure 1, cited from earlier work
[7] = test system: MV4-11 acute myeloid leukaemia (AML) cells; design: method as in PMID 32003940; conditions: cited from earlier work
[8] = test system: NB4 APL cells; design: method as in PMID 32003940; conditions: cited from earlier work
[9] = target: T2, hMAO-A (Homo sapiens, UniProt P21397); assay: Anti-MAO assay (Amplex Red, p-tyramine); type: biochemical; conditions: for MAO Selectivity Index: IC50 MAO-B/IC50 MAO-A; for IC50: mean ± SD, n = 3
T2 construct: purchased Sigma-Aldrich
T2 sequence (P21397 1-527): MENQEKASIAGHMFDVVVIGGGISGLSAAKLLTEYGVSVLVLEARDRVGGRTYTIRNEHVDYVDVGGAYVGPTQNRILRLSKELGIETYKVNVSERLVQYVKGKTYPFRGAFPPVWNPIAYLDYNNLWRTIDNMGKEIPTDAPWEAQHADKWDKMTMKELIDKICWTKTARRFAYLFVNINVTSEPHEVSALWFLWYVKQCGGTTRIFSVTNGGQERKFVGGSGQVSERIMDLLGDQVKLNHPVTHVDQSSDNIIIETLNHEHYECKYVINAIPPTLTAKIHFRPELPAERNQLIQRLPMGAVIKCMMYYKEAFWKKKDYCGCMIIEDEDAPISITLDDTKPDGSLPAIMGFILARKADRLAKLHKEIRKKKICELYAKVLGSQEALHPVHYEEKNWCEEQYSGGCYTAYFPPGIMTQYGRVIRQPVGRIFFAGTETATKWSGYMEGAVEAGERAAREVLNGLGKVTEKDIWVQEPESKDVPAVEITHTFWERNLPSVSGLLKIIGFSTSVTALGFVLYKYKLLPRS

[10] = target: T3, hMAO-B (Homo sapiens, UniProt P27338); assay: Anti-MAO assay (Amplex Red, p-tyramine); type: biochemical; conditions: mean ± SD, n = 3
T3 construct: purchased Sigma-Aldrich
T3 sequence (P27338 1-520): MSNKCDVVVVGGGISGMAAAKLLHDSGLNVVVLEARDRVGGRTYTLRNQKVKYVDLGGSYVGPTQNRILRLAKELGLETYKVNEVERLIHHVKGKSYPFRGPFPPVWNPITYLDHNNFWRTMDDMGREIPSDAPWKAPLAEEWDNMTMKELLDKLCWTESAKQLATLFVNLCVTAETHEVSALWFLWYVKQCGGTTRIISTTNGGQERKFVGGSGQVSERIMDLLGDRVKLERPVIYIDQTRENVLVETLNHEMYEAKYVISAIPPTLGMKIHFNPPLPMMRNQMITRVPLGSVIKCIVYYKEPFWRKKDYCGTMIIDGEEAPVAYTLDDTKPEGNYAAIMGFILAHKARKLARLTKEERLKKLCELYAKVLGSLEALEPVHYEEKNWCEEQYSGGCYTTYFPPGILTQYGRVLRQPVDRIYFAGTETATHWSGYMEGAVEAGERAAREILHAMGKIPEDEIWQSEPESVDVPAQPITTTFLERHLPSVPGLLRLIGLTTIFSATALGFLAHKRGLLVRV

[11] = test system: LSD1-CoREST complex; assay: LSD1-CoREST inhibition assay (Amplex UltraRed/HRP, H3K4 peptide); type: biochemical, human; conditions: for LSD1 selectivity vs MAO-A: IC50 MAO-A/IC50 LSD1; for LSD1 selectivity vs MAO-B: IC50 MAO-B/IC50 LSD1
[12] = test system: LNCaP cells; design: method as in PMID 30693539; conditions: 72 h; cited from earlier work

| SMILES | IC50 [1] [nM] | IC50 ([2]; 48 h) [nM] | IC50 ([2]; 72 h) [nM] | MAO Selectivity Index [9] | IC50 [9] [nM] | IC50 [10] [nM] | melting point [°C] | effect on cell viability in U937 cells [3] | LSD1 selectivity vs MAO-A [11] | LSD1 selectivity vs MAO-B [11] | also measured |
| --- | --- | --- | --- | --- | --- | --- | --- | --- | --- | --- | --- |
| NC1CC1c1ccc(NC(=O)c2ccc(-c3ccccc3)cc2)cc1 (centres unmarked) [1a] | 190 ± 30 | 34100 ± 13200 | 25400 ± 3200 |  |  |  |  | almost ineffective |  |  | IC50 [4]: 51 nM; MAO-A inhibition ([5]; @ 100 μM): 2%; MAO-B inhibition ([6]; @ 100 μM): 8%; cell growth arrest IC50 [7]: low, single-digit micromolar levels; cell growth arrest IC50 [8]: low, single-digit micromolar levels |
| Cl.NC1CC1c1ccc(NC(=O)c2ccc(-c3ccoc3)cc2)cc1 (centres unmarked) [3a, N-(4-(2-Aminocyclopropyl)phenyl)-4-(furan-3-yl)benzamide hydrochloride] | 2340 ± 225 |  |  | 0.6 | 160 ± 14 | 93 ± 8 |  |  |  |  |  |
| Cl.NC1CC1c1ccc(NC(=O)c2ccc(-c3ccsc3)cc2)cc1 (centres unmarked) [5a, N-(4-(2-Aminocyclopropyl)phenyl)-4-(thiophen-3-yl)benzamide hydrochloride] | 341 ± 106 | 26500 ± 4800 | 17900 ± 1600 | 1.6 | 42 ± 4 | 67 ± 6 |  | the most potent |  |  |  |
| Cl.NC1CC1c1ccc(NC(=O)c2cccc(-c3ccco3)c2)cc1 (centres unmarked) [2b, N-(4-(2-Aminocyclopropyl)phenyl)-3-(furan-2-yl)benzamide hydrochloride] | 110 ± 44 | 27600 ± 9800 | 18500 ± 2700 | 9.5 | 93 ± 8 | 888 ± 77 | 208 to 210 | almost ineffective | 0.8 | 8.1 |  |
| Cl.NC1CC1c1ccc(NC(=O)c2ccc(-c3ccco3)cc2)cc1 (centres unmarked) [2a, N-(4-(2-Aminocyclopropyl)phenyl)-4-(furan-2-yl)benzamide hydrochloride] | 2000 ± 528 |  |  | 1.7 | 43 ± 4 | 73 ± 6 |  |  |  |  |  |
| Cl.NC1CC1c1ccc(NC(=O)c2ccc(-c3cccs3)cc2)cc1 (centres unmarked) [4a, N-(4-(2-Aminocyclopropyl)phenyl)-4-(thiophen-2-yl)benzamide hydrochloride] | 1080 ± 359 |  |  | 1.3 | 25 ± 2 | 32 ± 3 | > 250 |  |  |  |  |
| NC1CC1c1ccc(NC(=O)c2ccccc2)cc1 (centres unmarked) [MC2584, reference compound] |  |  |  |  |  |  |  |  |  |  | IC50 [4]: 19 nM; IC50 [5]: 31 nM; IC50 [6]: 8980 nM |
| C#CCN(C)CCCOc1ccc(Cl)cc1Cl [clorgyline] |  |  |  |  |  |  |  |  |  |  | IC50 [12]: 63700 ± 8200 nM |

The next lines start with results.

| IC50 [1] [nM] | IC50 ([2]; 48 h) [nM] | IC50 ([2]; 72 h) [nM] | MAO Selectivity Index [9] | IC50 [9] [nM] | IC50 [10] [nM] | melting point [°C] | SMILES | effect on cell viability in U937 cells [3] | LSD1 selectivity vs MAO-A [11] | LSD1 selectivity vs MAO-B [11] | also measured |
| --- | --- | --- | --- | --- | --- | --- | --- | --- | --- | --- | --- |
| 149 ± 43 | 22800 ± 5100 | 9900 ± 1700 | 11.7 | 28 ± 2 | 327 ± 28 | > 250 | Cl.NC1CC1c1ccc(NC(=O)c2cccc(-c3ccccc3)c2)cc1 (centres unmarked) [1b, N-(4-(2-Aminocyclopropyl)phenyl)-[1,1′-biphenyl]-3-carboxamide hydrochloride] | the most potent | 0.2 | 2.2 | fold higher potency against LSD1 of meta regioisomer than para counterpart ([1]; meta vs para): 1.3 fold |
| 221 ± 23 | 12400 ± 6100 | 13400 ± 3700 | 0.5 | 1120 ± 97 | 519 ± 36 | 235 to 238 | Cl.NC1CC1c1ccc(NC(=O)c2cccc(-c3ccoc3)c2)cc1 (centres unmarked) [3b, N-(4-(2-Aminocyclopropyl)phenyl)-3-(furan-3-yl)benzamide hydrochloride] | the most potent | 5.1 | 2.3 |  |
| 572 ± 157 |  |  | 66 | 159 ± 14 | 10400 ± 300 | > 250 | Cl.NC1CC1c1ccc(NC(=O)c2cccc(-c3ccncc3)c2)cc1 (centres unmarked) [6b, N-(4-(2-Aminocyclopropyl)phenyl)-3-(pyridin-4-yl)benzamide hydrochloride] |  | 0.3 | 18.2 | fold drop of anti-LSD1 potency compared with phenyl analogue [1]: 4 fold |
| 13900 ± 3060 |  |  | 5.2 | 69 ± 6 | 358 ± 31 | > 250 | Cl.NC1CC1c1ccc(NC(=O)c2ccc(-c3ccncc3)cc2)cc1 (centres unmarked) [6a, N-(4-(2-Aminocyclopropyl)phenyl)-4-(pyridin-4-yl)benzamide hydrochloride] |  |  |  | fold drop of anti-LSD1 potency compared with phenyl analogue [1]: 73 fold |
| 15 ± 3 | 25700 ± 8300 | 15200 ± 3500 | 15.3 | 24 ± 2 | 366 ± 32 | 245 to 248 | Cl.NC1CC1c1ccc(NC(=O)c2cccc(-c3cccs3)c2)cc1 (centres unmarked) [4b, N-(4-(2-Aminocyclopropyl)phenyl)-3-(thiophen-2-yl)benzamide hydrochloride] | almost ineffective | 1.6 | 24.4 |  |
| 5 ± 0.8 | 32100 ± 7800 | 17200 ± 3500 |  | 28 ± 2 | 820 ± 71 | > 250 | Cl.NC1CC1c1ccc(NC(=O)c2cccc(-c3ccsc3)c2)cc1 (centres unmarked) [5b, N-(4-(2-Aminocyclopropyl)phenyl)-3-(thiophen-3-yl)benzamide hydrochloride] | the most potent |  |  |  |
